Where two headings read alike, the source gives them in different places. Where a SMILES comes first, the peptide text is derived from it. Bridges are numbered along the chain shown (N, C = ends). [ ]: non-standard residue; d: D form. The star is where a group is joined. ξ: configuration not given here. Phe(3-CF3) = N[C@@H](Cc1cccc(C(F)(F)F)c1)C(=O)O; Bip = N[C@@H](Cc1ccc(-c2ccccc2)cc1)C(=O)O; Dap(N3) = [N-]=[N+]=NC[C@H](N)C(=O)O; 3Pal = N[C@@H](Cc1cccnc1)C(=O)O; 4Pal = N[C@@H](Cc1ccncc1)C(=O)O; Cha = N[C@@H](CC1CCCCC1)C(=O)O; NMeN = CN[C@@H](CC(N)=O)C(=O)O; Thr(3ξ) = CC(O)[C@H](N)C(=O)O; Phg = N[C@H](C(=O)O)c1ccccc1; Carboxymethyl = O=C(O)C*; Orn = NCCC[C@H](N)C(=O)O; Pra = C#CC[C@H](N)C(=O)O; Dab = NCC[C@H](N)C(=O)O; Dap = NC[C@H](N)C(=O)O

IC50 data for eleven compounds are collected here from patent US20250163104A1, “MACROCYCLIC IMMUNOMODULATORS” (priority 2021, published 2025).

In the assay the target is T1, human PD-1 / PD-L1-Ig binding on Jurkat cell line over-expressing human PD-1 (Jurkat-PD-1) (Homo sapiens, UniProt Q15116).
T1 construct: expressed in transfected cells; host or cells: Jurkat
As to the kind of experiment: Jurkat-PD-1 Cell Binding High-Content Screening Assay (CBA). It counts as cell-based. The settings on record: PE-labeled PD-L1-Ig 20 nM final. In outline: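 Cell-bound PE-labeled PD-L1-Ig (20 nM final, 1 h) measured by high-content imaging after fixation and Hoechst 33342 counterstain. Compound was applied first for 2 h at 37° C. to Jurkat cells over-expressing human PD-1 in DMEM with 10% FCS.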

The mark [1] stands for this setting: Jurkat-PD-1 cells, read-out: Jurkat HPD1_PDL1 IC50.

T1 sequence (Q15116 25-288): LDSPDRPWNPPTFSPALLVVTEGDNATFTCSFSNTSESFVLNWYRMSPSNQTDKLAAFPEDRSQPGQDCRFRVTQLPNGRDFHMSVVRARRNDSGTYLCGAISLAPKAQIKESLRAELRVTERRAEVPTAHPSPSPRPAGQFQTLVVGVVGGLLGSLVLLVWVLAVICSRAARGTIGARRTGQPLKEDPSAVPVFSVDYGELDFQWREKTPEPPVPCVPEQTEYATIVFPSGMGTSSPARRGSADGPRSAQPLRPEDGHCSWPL

As for `CC(C)C[C@@H]1NC(=O)[C@H](CCN)NC(=O)[C@@H](CC(C)C)NC(=O)[C@H](CCCN)NC(=O)[C@H](C(C)C)NC(=O)[C@H](Cc2ccc(-c3ccccc3)cc2)NC(=O)[C@H](C(C)C)NC(=O)[C@H](Cc2c[nH]c3ccccc23)NC(=O)[C@H](CC(=O)O)NC(=O)[C@H](Cc2ccc(O)cc2)NC(=O)[C@H](Cc2ccncc2)NC(=O)CSC[C@@H](C(=O)N[C@@H](C)C(N)=O)NC(=O)[C@H]([C@@H](C)O)NC(=O)[C@H](C(C)C)NC1=O` [Compound 1047] ({CH2CO}-[4Pal]YDWV[Bip]V[Orn][dL][Dab]LVTCA-NH2; thioether N-14), the half-inhibitory concentration (IC50) under setting [1] was 0.0067 µM.

In the case of `CC(C)C[C@H]1NC(=O)[C@H](CCCN)NC(=O)[C@H](CCC(=O)O)NC(=O)[C@H](Cc2ccc(-c3ccccc3)cc2)NC(=O)[C@H](C(C)C)NC(=O)[C@H](Cc2c[nH]c3ccccc23)NC(=O)[C@H](CC(=O)O)NC(=O)[C@H](Cc2ccc(OCC(=O)O)cc2)NC(=O)[C@H](Cc2ccncc2)NC(=O)CSC[C@@H](C(=O)N[C@@H](C)C(N)=O)NC(=O)[C@H]([C@@H](C)O)NC(=O)[C@H](C(C)C)NC(=O)[C@H](CC2CCCCC2)NC(=O)[C@H](Cc2c[nH]cn2)NC1=O` [Compound 1609], the IC50 (Jurkat HPD1_PDL1 IC50, Jurkat-PD-1 cells) stood at 0.0153 µM.

Turning to `Cc1cccc(C[C@@H]2NC(=O)[C@H](CC(=O)O)NC(=O)[C@H](Cc3ccc(C(=O)O)cc3)NC(=O)[C@H](Cc3ccncc3)NC(=O)CSC[C@@H](C(=O)N[C@@H](C)C(N)=O)NC(=O)[C@H]([C@@H](C)O)NC(=O)[C@H](C(C)C)NC(=O)[C@H](CC3CCCCC3)NC(=O)[C@H](CCN)NC(=O)[C@@H](CC(C)C)NC(=O)[C@H](CCCN)NC(=O)[C@H](c3ccccc3)NC(=O)[C@H](Cc3ccc(-c4ccccc4)cc3)NC(=O)[C@H](C(C)C)NC2=O)c1` [Compound 1616], under setting [1], the IC50 is 0.0093 µM.

For `CC(C)C[C@H]1NC(=O)[C@H](CCCN)NC(=O)[C@H](CCC(=O)O)NC(=O)[C@H](Cc2ccc(-c3ccccc3)cc2)NC(=O)[C@H](C(C)C)NC(=O)[C@H](Cc2c[nH]c3ccccc23)NC(=O)[C@H](CC(=O)O)NC(=O)[C@H](Cc2cccnc2)NC(=O)[C@H](Cc2ccncc2)NC(=O)CSC[C@@H](C(=O)N[C@@H](C)C(N)=O)NC(=O)[C@H]([C@@H](C)O)NC(=O)[C@H](C(C)C)NC(=O)[C@H](CC2CCCCC2)NC(=O)[C@H](CCN)NC1=O` [Compound 2174] ({CH2CO}-[4Pal][3Pal]DWV[Bip]E[Orn][dL][Dab][Cha]VTCA-NH2; thioether N-14), the IC50 under setting [1] was 0.0177 µM.

Regarding `CC(C)C[C@H]1NC(=O)[C@H](CCCN)NC(=O)[C@H](C(C)C)NC(=O)[C@H](Cc2ccc(-c3ccccc3)cc2)NC(=O)[C@H](C(C)C)NC(=O)[C@H](Cc2c[nH]c3ccccc23)NC(=O)[C@H](CC(=O)O)NC(=O)[C@H](Cc2ccc(OCC(=O)O)cc2)NC(=O)[C@H](C(C)O)NC(=O)CSC[C@@H](C(=O)N(C)[C@@H](CC(N)=O)C(N)=O)NC(=O)[C@H](CO)NC(=O)[C@H](C(C)C)NC(=O)[C@H](CC2CCCCC2)NC(=O)[C@H](CCN)NC1=O` (stereo partly drawn) [Compound 2568] ({CH2CO}-[Thr(3ξ)]Y(Carboxymethyl)DWV[Bip]V[Orn][dL][Dab][Cha]VSC[NMeN]-NH2; thioether N-14), the IC50 under setting [1] is 0.0671 µM.

Regarding `CC(C)C[C@H]1NC(=O)[C@H](CCCN)NC(=O)[C@H](CCCCN)NC(=O)[C@H](Cc2ccc(-c3ccccc3)cc2)NC(=O)[C@H](C(C)C)NC(=O)[C@H](Cc2c[nH]c3ccccc23)NC(=O)[C@H](CC(=O)O)NC(=O)[C@H](Cc2ccncc2)NC(=O)[C@H](CN)NC(=O)CSC[C@@H](C(=O)N[C@@H](CCCN)C(N)=O)NC(=O)[C@H](CN)NC(=O)[C@H](C(C)C)NC(=O)[C@H](CC2CCCCC2)NC(=O)[C@H](CCN)NC1=O` [Compound 2251] ({CH2CO}-[Dap][4Pal]DWV[Bip]K[Orn][dL][Dab][Cha]V[Dap]C[Orn]-NH2; thioether N-14), the IC50 under setting [1] was 0.139 µM.

Take `CC(C)C[C@H]1NC(=O)[C@H](CCCN)NC(=O)[C@H](CCC(=O)O)NC(=O)[C@H](Cc2ccc(-c3ccccc3)cc2)NC(=O)[C@H](C(C)C)NC(=O)[C@H](Cc2cccc(C(F)(F)F)c2)NC(=O)[C@H](CC(=O)O)NC(=O)[C@H](Cc2ccncc2)NC(=O)[C@H](Cc2ccccc2)NC(=O)CSC[C@@H](C(=O)N[C@@H](C)C(N)=O)NC(=O)[C@H]([C@@H](C)O)NC(=O)[C@H](C(C)C)NC(=O)[C@H](CC2CCCCC2)NC(=O)[C@H](CCN)NC1=O` [Compound 1463] ({CH2CO}-F[4Pal]D[Phe(3-CF3)]V[Bip]E[Orn][dL][Dab][Cha]VTCA-NH2; thioether N-14): under setting [1], the IC50 worked out at 0.0244 µM.

In the case of `CC(C)C[C@H]1NC(=O)[C@H](CCCN)NC(=O)[C@H](CCC(=O)O)NC(=O)[C@H](Cc2ccc(-c3ccccc3)cc2)NC(=O)[C@H](C(C)C)NC(=O)[C@H](Cc2c[nH]c3ccccc23)NC(=O)[C@H](CC(=O)O)NC(=O)[C@H](Cc2cccnc2)NC(=O)[C@H](Cc2ccccc2)NC(=O)CSC[C@@H](C(=O)N[C@@H](C)C(N)=O)NC(=O)[C@H]([C@@H](C)O)NC(=O)[C@H](C(C)C)NC(=O)[C@H](CC2CCCCC2)NC(=O)[C@H](CCN)NC1=O` [Compound 2171] ({CH2CO}-F[3Pal]DWV[Bip]E[Orn][dL][Dab][Cha]VTCA-NH2; thioether N-14), the 50% inhibitory concentration (IC50) under setting [1] was 0.0191 µM.

Turning to `CC(C)C[C@H]1NC(=O)[C@H](CCCN)NC(=O)[C@H](CCCCN)NC(=O)[C@H](Cc2ccc(-c3ccccc3)cc2)NC(=O)[C@H](C(C)C)NC(=O)[C@H](Cc2c[nH]c3ccccc23)NC(=O)[C@H](CC(=O)O)NC(=O)[C@H](Cc2ccncc2)NC(=O)[C@H](CN)NC(=O)CSC[C@@H](C(=O)N[C@@H](C)C(N)=O)NC(=O)[C@H]([C@@H](C)O)NC(=O)[C@H](C(C)C)NC(=O)[C@H](CC2CCCCC2)NC(=O)[C@H](CCN)NC1=O` [Compound 1389] ({CH2CO}-[Dap][4Pal]DWV[Bip]K[Orn][dL][Dab][Cha]VTCA-NH2; thioether N-14), the IC50 under setting [1] was determined as 0.0085 µM.

For the compound `CC(C)C[C@H]1NC(=O)[C@H](CCCN)NC(=O)[C@H](C(C)C)NC(=O)[C@H](Cc2ccc(-c3ccccc3)cc2)NC(=O)[C@H](c2ccccc2)NC(=O)[C@H](Cc2c[nH]c3ccccc23)NC(=O)[C@H](CC(=O)O)NC(=O)[C@H](Cc2ccc(OCC(=O)O)cc2)NC(=O)[C@H](CN)NC(=O)CSC[C@@H](C(=O)N[C@@H](C)C(N)=O)NC(=O)[C@H]([C@@H](C)O)NC(=O)[C@H](C(C)C)NC(=O)[C@H](CC2CCCCC2)NC(=O)[C@H](CCN)NC1=O` [Compound 1736] ({CH2CO}-[Dap]Y(Carboxymethyl)DW[Phg][Bip]V[Orn][dL][Dab][Cha]VTCA-NH2; thioether N-14), the 50% inhibitory concentration (IC50) under setting [1] amounted to 0.014 µM.

As to `C#CC[C@H](NC(=O)[C@@H]1CSCC(=O)N[C@@H](CN)C(=O)N[C@@H](CN=[N+]=[N-])C(=O)N[C@@H](CC(=O)O)C(=O)N[C@@H](Cc2c[nH]c3ccccc23)C(=O)N[C@@H](C(C)C)C(=O)N[C@@H](Cc2ccc(-c3ccccc3)cc2)C(=O)N[C@@H](CCC(=O)O)C(=O)N[C@@H](CCCN)C(=O)N[C@H](CC(C)C)C(=O)N[C@@H](CCN)C(=O)N[C@@H](CC2CCCCC2)C(=O)N[C@@H](C(C)C)C(=O)N[C@@H]([C@@H](C)O)C(=O)N1)C(N)=O` [Compound 1539] ({CH2CO}-[Dap][Dap(N3)]DWV[Bip]E[Orn][dL][Dab][Cha]VTC[Pra]-NH2; thioether N-14), the IC50 under setting [1] is 0.0857 µM.
